pKd: −log10 of the molar value.
Biological target: T1, SmcR (Vibrio vulnificus, UniProt Q9L8G8)
T1 construct: purified SmcR (dimer); SeMet-substituted SmcR for the crystals
Test: ITC (two-sequential binding model; second Kd =[…]) and […] Å crystal structure of the soaked complex

T1 sequence (Q9L8G8 entry or part of it): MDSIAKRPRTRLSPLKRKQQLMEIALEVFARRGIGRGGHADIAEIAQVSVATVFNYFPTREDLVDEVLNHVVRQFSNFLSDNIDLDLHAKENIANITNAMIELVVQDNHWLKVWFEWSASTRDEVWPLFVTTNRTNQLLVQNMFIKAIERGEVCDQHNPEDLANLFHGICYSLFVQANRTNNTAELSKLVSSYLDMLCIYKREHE

Structure (SMILES): O=S(=O)(c1ccc(Br)s1)n1cccn1 [377B6, 1-(5-bromothiophene-2-sulfonyl)-1H-pyrazole]
- pKd: 6.33
